Source: ChEMBL document CHEMBL1201862, “PubChem BioAssay data set” (2004)
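96-well plates; 48 h exposure; 5 concentrations. Endpoints by linear interpolation between flanking doses. Not reached: highest tested concentration assigned. GI50 = concentration required for 50% inhibition of growth.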 Calls of active or inactive are those of the source. Cut-off read from the data, not from the text of the source: active = GI50 up to about 1.1 µM and inactive = higher.

Experiments:
Assay in all cases: NCI anticancer screen, dose series, 48 h
[1] = test system: HOP-92
[2] = test system: MOLT-4
[3] = test system: UACC-62
[4] = test system: XF498
[5] = test system: COLO 205
[6] = test system: OVCAR-4
[7] = test system: UO-31
[8] = test system: NCI-H23
[9] = test system: MCF7
[10] = test system: NCI-H226
[11] = test system: SF-539
[12] = test system: KM12
[13] = test system: M19-MEL
[14] = test system: Malme-3M
[15] = test system: HOP-18
[16] = test system: EKVX
[17] = test system: NCI/ADR-RES
[18] = test system: SW-620
[19] = test system: U-251
[20] = test system: SK-MEL-2
[21] = test system: SNB-75
[22] = test system: SK-OV-3
[23] = test system: SN12C
[24] = test system: UACC-257
[25] = test system: KM-20L2
[26] = test system: SNB-19
[27] = test system: HCT-116
[28] = test system: K562
[29] = test system: DMS-114
[30] = test system: NCI-H522
[31] = test system: HL-60
[32] = test system: SNB-78
[33] = test system: DLD-1
[34] = test system: SK-MEL-28
[35] = test system: CCRF-CEM
[36] = test system: A498
[37] = test system: SF-268
[38] = test system: OVCAR-8
[39] = test system: DMS-273
[40] = test system: HOP-62
[41] = test system: SK-MEL-5
[42] = test system: HT-29
[43] = test system: NCI-H460
[44] = test system: RXF 393
[45] = test system: RPMI-8226
[46] = test system: IGROV-1
[47] = test system: SF-295
[48] = test system: OVCAR-3
[49] = test system: A549
[50] = test system: HCC 2998
[51] = test system: HCT-15
[52] = test system: LOX IMVI
[53] = test system: CAKI-1
[54] = test system: OVCAR-5
[55] = test system: 786-0
[56] = test system: M14
[57] = test system: TK-10
[58] = test system: ACHN
[59] = test system: LXFL 529
[60] = test system: SR

Measured: GI50

CN(C)CCNC(=O)c1cc(Cl)cc2ccc(-c3ccccc3)nc12
active: [2] 0.447 µM
inactive: [1] 2.82 µM | [3] 2.45 µM | [4] 2.18 µM | [5] 1.6 µM | [6] 3.92 µM | [7] 1.91 µM | [8] 3.96 µM | [9] 1.82 µM | [10] 2.49 µM | [11] 3.09 µM | [12] 4.84 µM | [13] 3.15 µM | [14] 3.63 µM | [15] 3.52 µM | [16] 5.12 µM | [17] 2.51 µM | [18] 2.32 µM | [19] 4.32 µM | [20] 4.85 µM | [21] 1.86 µM | [22] 3.13 µM | [23] 3.02 µM | [24] 2.92 µM | [25] 2.65 µM | [26] 5.04 µM | [27] 2.18 µM | [28] 1.78 µM | [29] 3.46 µM | [30] 5.37 µM | [31] 2.05 µM | [32] 8.13 µM | [33] 3.3 µM | [34] 4.83 µM | [35] 1.49 µM | [36] 5.48 µM | [37] 4.57 µM | [38] 2.92 µM | [39] 2.3 µM | [40] 3.13 µM | [41] 1.87 µM | [42] 2.22 µM | [43] 2 µM | [44] 3.86 µM | [45] 1.85 µM | [46] 3.18 µM | [47] 3.86 µM | [48] 3.74 µM | [49] 2.87 µM | [50] 3.54 µM | [52] 2.32 µM | [53] 2.04 µM | [54] 4.84 µM
2.85 µM: [51]

CCN1CCC(O)(c2ccc(C)cc2)C(C(=O)c2ccc(C)cc2)C1 (stereo not given)
19.6 µM: [51]
inactive: [1] 19.7 µM | [2] 29 µM | [3] > 42.6 µM | [4] 18 µM | [5] 23.6 µM | [6] 21.5 µM | [7] 28.2 µM | [8] > 40 µM | [10] > 100 µM | [11] > 43.5 µM | [12] 33.1 µM | [55] 13.5 µM | [13] > 47.3 µM | [14] 19.5 µM | [56] 36.7 µM | [15] 22.1 µM | [57] > 44.5 µM | [16] 17.3 µM | [18] 16.8 µM | [19] > 52.5 µM | [20] > 100 µM | [21] 71.9 µM | [58] 17.5 µM | [22] > 100 µM | [23] 14.9 µM | [24] 19.1 µM | [25] 13 µM | [26] > 80.7 µM | [27] 16.7 µM | [28] 32.1 µM | [59] 17.4 µM | [30] 1.94 µM | [31] 20.3 µM | [32] > 51.8 µM | [33] 18.1 µM | [34] 23.9 µM | [35] 18.3 µM | [36] > 59.2 µM | [37] > 53 µM | [38] 25.5 µM | [39] 19.8 µM | [40] > 100 µM | [41] > 42.3 µM | [42] 19.8 µM | [43] > 52.6 µM | [60] 23.9 µM | [45] 12.9 µM | [46] > 42.9 µM | [47] > 100 µM | [48] 21.9 µM | [49] > 75.9 µM | [50] 52.4 µM | [52] 26.2 µM | [53] 17.2 µM | [54] 20.2 µM
